From patent US9896415B2, “Chalcone derivatives having an anti-allergic activity” (UNIVERSITE CLAUDE BERNARD LYON I, priority 2013, dated 2018)
Entries after “also recorded” stand apart in the source; their conditions may differ. Read-outs that look alike come from different tables or passages of the source.

Key:
[1] = tested on: normal human basophils; assay: Degranulation of normal human basophils after anti-IgE antibody, CD63 and CD203c expression by flow cytometry; format: cell-based; conditions: 4 donors; for Emax: Homo sapiens, effect-dose study, 1 to 100 micromolars; for dose effect, CD63 marker / dose effect, CD203c marker: between 1 and 100 micromolars, no plateau effect
Text: The compounds according to the invention have a substantial protective activity towards the degranulation of normal human basophils, such that it may be evaluated by the overexpression of CD203c and of CD63 after exposure to an anti-IgE antibody. In particular, the concentration of the compound according to the invention giving the possibility of obtaining a 50% protective effect (with respect to a value of 100% corresponding to the control achieved in the absence of a compound according to the invention) belongs to the range from 1 to 100 micromolar.
a) Activity on the Degranulation of Normal Human Basophils CD203c and CD 63
This test consists of analyzing with flow cytometry the expression of the membrane markers CD203c and CD63 on normal human basophils. For this blood from healthy donors is exposed to an antibody directed against immunoglobulins E (IgE) which leads to activation and degranulation of the basophils, causing an increase in the expression of CD203c and CD63. […] As the compounds of interest are dissolved in dimethylsulfoxide (DMSO), a control is also produced by incubating the basophils in the presence of DMSO without any active ingredient.

[2] = tested on: asthma model in mice; assay: Ovalbumin (OVA) asthma model in mice: plethysmography, broncho-alveolar wash and lung cytology; format: in vivo; conditions: one day after last OVA challenge; for intrabronchial infiltrate: broncho-alveolar wash; for respiratory function: Penh in response to increasing doses of metacholine: non-invasive plethysmography, i.p. daily
Text: b) Effect on the Respiratory Function in an Asthma Model in Mice
The compounds according to the invention were also subject to tests in vivo. Cromoglycate was used as a reference compound since presently it is the only compound presently marketed having been described as having an effect on the degranulation of basophils.
• The model used is an ovalbumin model (ova). The procedure includes: • 4 weeks of sensitization with ova solubilized in a solution containing alum and injected intra-peritoneally (I-P). • 1 week of challenge with 3 intranasal challenges of ova solubilized in phosphate buffer PBS for 3 subsequent days. • Injections of PBS, of compound (I.1) or of cromoglycate were carried out all along the challenge phase and continued until the date of analysis in an amount of one injection per day intra-peritoneally. • The analyses were carried out 1 and 5 days after the last intranasal challenge. • These analyses comprise:
One Day after the Last Challenge • an analysis the of the respiratory function by non-invasive plethysmography on 10 mice per group. The respiratory function is analysed in response to an increasing dose of metacholine (broncho-constrictor). • recovery and analysis of the broncho-alveolar wash (count of the number of cells, and cytological analysis) on 5 mice. • dissection of the lungs for cytological analysis (microscopic study after staining) on the same 5 mice.
Five Days after the Last Challenge • an analysis of the pulmonary resistance by the forced oscillation technique (invasive method) on the 5 remaining mice of different groups. The pulmonary resistance is analyzed in response to an increasing dose of metacholine (bronchoconstrictor). • recovery and analysis of the broncho-alveolar wash (counting the number of cells, and deposition on a slide by cytospin for cytological analysis) on these 5 mice.
A compound group (1.1) (n=10), an i-cm group (cromoglycate, n=10) and an i-PBS group (n=10).
The compound (I.1) is dissolved in a DMSO solution. This stock solution is then diluted in an ethanol:PBS (vol:vol) solution before intraperitoneal administration.
The Penh (enhanced pause) values, calculated from plethysmography measurements, express the prolongation of the expiratory pause time observed in subjects having a reduction of the bronchial calibre and are correlated with the respiratory resistance. A decrease in the Penh values therefore corresponds to a protective effect towards bronchoconstriction induced by OVA.

[3] = read-out: maximum effect on CD63
[4] = read-out: maximum effect on CD203c
[5] = flow cytometry cytology, compared with PBS group

SMILES: COc1cc(OC)c(/C=C/C(=O)c2c(O)cc(OC)c(C3CCN(C)CC3)c2OC)c(OC)c1 [compound (I.1)]
- Emax [1, 3]: 80%
- Emax [1, 4]: 40%
- dose effect, CD63 marker [1]: A dose effect is observed
- dose effect, CD203c marker [1]: A dose effect is observed
- intrabronchial infiltrate ([2]; compared with PBS group): significant decrease in the intrabronchial infiltrate
- T lymphocytes in the intrabronchial infiltrate [2, 5]: reduction
- eosinophils in the intrabronchial infiltrate [2, 5]: a reduction in the eosinophils
- intra-pulmonary hypereosinophilia ([2]; lungs, flow cytometry cytology): much less substantial
- respiratory function: Penh in response to increasing doses of metacholine ([2]; compared with PBS group): the difference is only significant for the dose at 40 mg/ml; also recorded: improves the respiratory function of the mice

SMILES: COc1cccc(OC)c1/C=C/C(=O)c1c(O)cc(OC)c(C2CCN(C)CC2)c1OC [compound (I.2)]
- Emax [1, 3]: 80%
- Emax [1, 4]: 40%
- dose effect, CD63 marker [1]: A dose effect is observed
- dose effect, CD203c marker [1]: A dose effect is observed

SMILES: COc1cc(O)c(C(=O)/C=C/c2c(Cl)cccc2Cl)c(OC)c1C1CCN(C)CC1 [compound (I.3)]
- Emax [1, 3]: 80%
- Emax [1, 4]: 40%
- dose effect, CD63 marker [1]: A dose effect is observed
- dose effect, CD203c marker [1]: A dose effect is observed

SMILES: O=C(O)c1cc(=O)c2c(OCC(O)COc3cccc4oc(C(=O)O)cc(=O)c34)cccc2o1 [cromoglycate, reference compound]
- intrabronchial infiltrate ([2]; compared with PBS group): does not exhibit any significant difference
- eosinophils in the intrabronchial infiltrate [2, 5]: does not show any significant reduction in the eosinophil infiltrate
- respiratory function: Penh in response to increasing doses of metacholine ([2]; compared with PBS group): same increases in Penh
